Laboratory results: patent US20230391748A1, “BICYCLIC INHIBITORS OF IRAK” (priority 2022, published 2023)

Assays:
IL23p19 in THP-1 Cells = assay: LPS Induced IL23p19 in THP-1 Cells (with IFNγ Primed) Assay; format: cell-based; conditions: Homo sapiens, THP-1, 18 h, read-out: IL23 (THP, LPS) (IC50, μM)
Procedure, shortened: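 THP-1 cells (50K/well) primed with IFNγ (50 ng/mL) about 18 h, then given compound and stimulated with LPS for 18 h at 37 °C. Secreted IL-23p19 measured by sandwich ELISA with chemiluminescent read-out, giving EC50. Cell Titer Glo used on the remaining cells for toxicity.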

IRAK4 = IRAK4 (Homo sapiens (Human), UniProt Q9NWZ3); assay: IRAK4 ADP-Glo Assay; format: biochemical; conditions: MBP substrate
Procedure, shortened: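 Human IRAK4 kinase reaction with MBP substrate plus ATP in Tris-HCl/MgCl2/BSA/DTT buffer, pH 7.4, run 60 min at room temperature or 30 min at 30 °C. ADP formed was measured by ADP-Glo luminescence after ATP depletion (40 min) and detection reagent (30 min).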

TNF-α in human PBMCs = assay: R848-induced TNF-α in human PBMCs Assay; format: cell-based; conditions: Homo sapiens, PBMC, 4 h, read-out: TNFα (PBMC, R848) (IC50, μM)
Procedure, shortened: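 Human PBMCs at 200K/well were pretreated with compound, then R848-stimulated for 4 h at 37 °C, 5% CO2. Supernatant TNF-α quantified by chemiluminescent ELISA; EC50 from curve fitting.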

[1] = system: TNF-α in Human Primary Monocyte-Derived Dendritic Cells; assay: Gardiquimod-Induced TNF-α in Human Primary Monocyte-Derived Dendritic Cells; format: cell-based; conditions: Dendritic cell, IFNγ-primed monocyte-derived dendritic cells, 4 μg/ml Gardiquimod, 6 hours, TNF-α ELISA, read-out: TNFα (DC, GARD) (IC50)
Procedure, shortened: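 Monocytes differentiated 7 days with GM-CSF and IL-4, then primed 24 h with 50 ng/ml IFN-γ. Compound added 1 h before 6 h stimulation with 4 μg/ml Gardiquimod, 0.5% DMSO final. Supernatant TNF-α measured by chemiluminescent ELISA; EC50 from curve fitting.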

IRAK4, sequence (Q9NWZ3 whole entry): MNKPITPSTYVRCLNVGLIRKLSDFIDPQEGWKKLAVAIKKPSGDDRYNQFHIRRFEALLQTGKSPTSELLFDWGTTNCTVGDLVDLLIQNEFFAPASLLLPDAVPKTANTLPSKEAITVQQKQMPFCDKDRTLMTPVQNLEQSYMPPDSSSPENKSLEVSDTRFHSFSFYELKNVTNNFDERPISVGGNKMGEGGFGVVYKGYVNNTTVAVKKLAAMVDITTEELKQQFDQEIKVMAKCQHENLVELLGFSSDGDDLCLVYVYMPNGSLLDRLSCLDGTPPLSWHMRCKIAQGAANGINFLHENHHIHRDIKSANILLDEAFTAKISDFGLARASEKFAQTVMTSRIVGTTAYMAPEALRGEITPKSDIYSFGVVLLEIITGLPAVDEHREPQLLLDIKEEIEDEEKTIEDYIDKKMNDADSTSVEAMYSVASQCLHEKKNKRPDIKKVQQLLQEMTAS

Structure (SMILES)	IC50 (IL23p19 in THP-1 Cells) [µM]	IC50 (IRAK4) [µM]	IC50 (TNF-α in human PBMCs) [µM]	IC50 [1] [µM]
CC(C)Oc1cc2c(OC[C@@H]3CCC(=O)N3)ncc(-c3cnn(C4CCN(C)CC4)c3)c2cc1C(N)=O [Compound I-46, (S)-7-isopropoxy-4-(1-(1-methylpiperidin-4-yl)-1H-pyrazol-4-yl)-1-((5-oxopyrrolidin-2-yl)methoxy)isoquinoline-6-carboxamide]	5.42	0.0156	1.25	0.466
CC(C)Oc1cc2c(OC[C@@H]3CCC(=O)N3)ncc(-c3cn[nH]c3)c2cc1C(N)=O [Compound I-47, (S)-7-isopropoxy-1-((5-oxopyrrolidin-2-yl)methoxy)-4-(1H-pyrazol-4-yl)isoquinoline-6-carboxamide]	2.73	0.0076	0.816	1.87
CC(C)Oc1cc2c(OC[C@@H]3CC(F)(F)C(=O)N3)ncc(C#CC3(O)CCCC3)c2cc1C(N)=O [Compound I-48, (S)-1-((4,4-difluoro-5-oxopyrrolidin-2-yl)methoxy)-4-((1-hydroxycyclopentyl)ethynyl)-7-isopropoxyisoquinoline-6-carboxamide]	0.165	0.0044	0.0569	0.12
CC(C)Oc1cc2c(OC[C@@H]3CC(F)(F)C(=O)N3)ncc(C#CC3CCOCC3)c2cc1C(N)=O [Compound I-49, (S)-1-((4,4-difluoro-5-oxopyrrolidin-2-yl)methoxy)-7-isopropoxy-4-((tetrahydro-2H-pyran-4-yl)ethynyl)isoquinoline-6-carboxamide]	0.273	0.0076	0.0853	0.0737
CC(C)Oc1cc2c(OC[C@@H]3CC(F)(F)C(=O)N3)ncc(C#CCC3CCOCC3)c2cc1C(N)=O [Compound I-50, (S)-1-((4,4-difluoro-5-oxopyrrolidin-2-yl)methoxy)-7-isopropoxy-4-(3-(tetrahydro-2H-pyran-4-yl)prop-1-yn-1-yl)isoquinoline-6-carboxamide]	1.62	0.0048	0.115	0.23
CC(C)Oc1cc2c(OC[C@@H]3CC(F)(F)C(=O)N3)ncc(C#CC3(O)CCOCC3)c2cc1C(N)=O [Compound I-51, (S)-1-((4,4-difluoro-5-oxopyrrolidin-2-yl)methoxy)-4-((4-hydroxytetrahydro-2H-pyran-4-yl)ethynyl)-7-isopropoxyisoquinoline-6-carboxamide]	1.27	0.0053	0.391	1.03
CC(C)Oc1cc2c(OC[C@@H]3CC(F)(F)C(=O)N3)ncc(C#CC3(O)CCNCC3)c2cc1C(N)=O [Compound I-53, (S)-1-((4,4-difluoro-5-oxopyrrolidin-2-yl)methoxy)-4-((4-hydroxypiperidin-4-yl)ethynyl)-7-isopropoxyisoquinoline-6-carboxamide]	11	0.0063	3.06	14.2
CC(C)Oc1cc2c(OC[C@@H]3CC(F)(F)C(=O)N3)ncc(C#CC3CCN(C(=O)OC(C)(C)C)CC3)c2cc1C(N)=O [Compound I-54, tert-butyl (S)-4-((6-carbamoyl-1-((4,4-difluoro-5-oxopyrrolidin-2-yl)methoxy)-7-isopropoxyisoquinolin-4-yl)ethynyl)piperidine-1-carboxylate]	2.97	0.113	2.75	1.71
CC(C)Oc1cc2c(OC[C@@H]3CC(F)(F)C(=O)N3)ncc(C#CC3CCNCC3)c2cc1C(N)=O [Compound I-55, (S)-1-((4,4-difluoro-5-oxopyrrolidin-2-yl)methoxy)-7-isopropoxy-4-(piperidin-4-ylethynyl)isoquinoline-6-carboxamide]	4	0.0035	1.2	1.22
CC(C)Oc1cc2c(OC[C@@H]3CC(F)(F)C(=O)N3)ncc(C#CC3CCN(C)CC3)c2cc1C(N)=O [Compound I-56, (S)-1-((4,4-difluoro-5-oxopyrrolidin-2-yl)methoxy)-7-isopropoxy-4-((1-methylpiperidin-4-yl)ethynyl)isoquinoline-6-carboxamide]	0.422	0.0033	0.136	0.0249
CC(C)Oc1cc2c(OC[C@@H]3CC(F)(F)C(=O)N3)ncc(C#CC3(O)CCN(C)CC3)c2cc1C(N)=O [Compound I-57, (S)-1-((4,4-difluoro-5-oxopyrrolidin-2-yl)methoxy)-4-((4-hydroxy-1-methylpiperidin-4-yl)ethynyl)-7-isopropoxyisoquinoline-6-carboxamide]	7.39	0.0045	0.468	0.634
CCO[C@H]1CC[C@H](C#Cc2cnc(OC[C@@H]3CC(F)(F)C(=O)N3)c3cc(OC(C)C)c(C(N)=O)cc23)CC1 [Compound I-58, 1-(((S)-4,4-difluoro-5-oxopyrrolidin-2-yl)methoxy)-4-(((1r,4S)-4-ethoxycyclohexyl)ethynyl)-7-isopropoxyisoquinoline-6-carboxamide]	2960	0.729	1.56	0.0225
CCO[C@H]1CC[C@@H](C#Cc2cnc(OC[C@@H]3CC(F)(F)C(=O)N3)c3cc(OC(C)C)c(C(N)=O)cc23)CC1 [Compound I-59, 1-(((S)-4,4-difluoro-5-oxopyrrolidin-2-yl)methoxy)-4-((cis-4-ethoxycyclohexyl)ethynyl)-7-isopropoxyisoquinoline-6-carboxamide]	0.0466	0.0039	0.0472	0.032
CC(C)Oc1cc2c(OC[C@@H]3CC(F)(F)C(=O)N3)ncc(C#C[C@H]3CC[C@](C)(O)CC3)c2cc1C(N)=O [Compound I-60, 1-(((S)-4,4-difluoro-5-oxopyrrolidin-2-yl)methoxy)-4-(((1r,4S)-4-hydroxy-4-methylcyclohexyl)ethynyl)-7-isopropoxyisoquinoline-6-carboxamide]	0.0246	0.0093	0.0778	0.0213
CC(C)Oc1cc2c(OC[C@@H]3CC(F)(F)C(=O)N3)ncc(C#C[C@H]3CC[C@@](C)(O)CC3)c2cc1C(N)=O [Compound I-61, 1-(((S)-4,4-difluoro-5-oxopyrrolidin-2-yl)methoxy)-4-(((1s,4R)-4-hydroxy-4-methylcyclohexyl)ethynyl)-7-isopropoxyisoquinoline-6-carboxamide]	0.102	0.0088	0.0807	0.013
CC(C)Oc1cc2c(OC[C@@H]3CC(F)(F)C(=O)N3)ncc(C#CC3CN(C(=O)OC(C)(C)C)C3)c2cc1C(N)=O [Compound I-62, tert-butyl (S)-3-((6-carbamoyl-1-((4,4-difluoro-5-oxopyrrolidin-2-yl)methoxy)-7-isopropoxyisoquinolin-4-yl)ethynyl)azetidine-1-carboxylate]	0.0219	0.0193	0.001	0.0021
CC(C)Oc1cc2c(OC[C@@H]3CC(F)(F)C(=O)N3)ncc(C#CC3CNC3)c2cc1C(N)=O [Compound I-63, (S)-4-(azetidin-3-ylethynyl)-1-((4,4-difluoro-5-oxopyrrolidin-2-yl)methoxy)-7-isopropoxyisoquinoline-6-carboxamide]	5.9	0.0028	1.21	0.523
COC1(OC)CC(C#Cc2cnc(OC[C@@H]3CC(F)(F)C(=O)N3)c3cc(OC(C)C)c(C(N)=O)cc23)C1 [Compound I-65, (S)-1-((4,4-difluoro-5-oxopyrrolidin-2-yl)methoxy)-4-((3,3-dimethoxycyclobutyl)ethynyl)-7-isopropoxyisoquinoline-6-carboxamide]	0.0465	0.0087	0.0065	0.029
CC(C)Oc1cc2c(OC[C@@H]3CC(F)(F)C(=O)N3)ncc(-c3cnn(C4CC4)c3)c2cc1C(N)=O [Compound I-67, (S)-4-(1-cyclopropyl-1H-pyrazol-4-yl)-1-((4,4-difluoro-5-oxopyrrolidin-2-yl)methoxy)-7isopropoxyisoquinoline-6-carboxamide]	0.608	0.0063	0.0472	0.593
CC(C)Oc1cc2c(OC[C@@H]3CC(F)(F)C(=O)N3)ncc(-c3cnn(C4CCC4)c3)c2cc1C(N)=O [Compound I-68, (S)-4-(1-cyclobutyl-1H-pyrazol-4-yl)-1-((4,4-difluoro-5-oxopyrrolidin-2-yl)methoxy)-7-isopropoxyisoquinoline-6-carboxamide]	0.286	0.0095	0.406	0.545
CC(C)Oc1cc2c(OC[C@@H]3CC(F)(F)C(=O)N3)ncc(-c3cnn(C4CCCC4)c3)c2cc1C(N)=O [Compound I-69, (S)-4-(1-cyclopentyl-1H-pyrazol-4-yl)-1-((4,4-difluoro-5-oxopyrrolidin-2-yl)methoxy)-7-isopropoxyisoquinoline-6-carboxamide]	0.391	0.0051	0.241	0.0523
